Peptide text beside a SMILES is read from it.

For 52 compounds, logP results are on record in the OPERA property sets (Mansouri et al. 2018).

For orientation: logP means a log measure of how a compound divides between an organic and an aqueous phase. Read a low logP as lower lipophilicity. On to `Oc1ccc(Br)cc1Br`, for which the logP amounted to 3.22.

For `O=Cc1ccoc1`, the logP worked out at 0.51.

In turn, `Cc1cc(C)cc(O)c1` registered a lipophilicity (logP) of 2.35.

The compound `CC(=O)NN` gave a logP of -1.58.

Turning to `NC(=O)C(F)(F)F`, the logP amounted to 0.12.

The compound `C=CCOC(C)=O` had a logP of 0.97.

`CC(O)Cc1ccccc1` (configuration not stated) had a logP of 1.97.

For `O=Cc1ccc([N+](=O)[O-])o1`, the logP came out at 1.01.

`COc1ccc2cc(C(C)C(=O)OCC(=O)N(CCO)CCO)ccc2c1` (configuration not stated) registered a logP of 1.7.

In the case of `COc1cc(S(C)=O)ccc1-c1nc2nnccc2[nH]1` (configuration not stated), the logP was determined as 0.23.

In the case of `CCOC(=O)c1c[nH]cc1C`, the logP was 2.14.

`CS(=O)(=O)OCCCCOS(C)(=O)=O`: the logP is -0.52.

`CC1(C)O[C@@H]2C[C@H]3[C@@H]4C[C@H](F)C5=CC(=O)C=C[C@]5(C)[C@@]4(F)[C@@H](O)C[C@]3(C)[C@]2(C(=O)CO)O1` returned a logP of 2.48.

With `C=CCC1(C(C)CCC)C(=O)NC(=O)NC1=O` (configuration not stated), the logP was determined as 1.97.

`CC(=O)CCCc1ccccc1` registered a logP of 2.42.

`c1ccsc1` came in with a logP of 1.81.

Take `CON=C(C(=O)NC1C(=O)N2C(C(=O)OCOC(=O)C(C)(C)C)=C(CSc3nnnn3C)CSC12)c1csc(N)n1` (configuration not stated): the logP is 1.74.

Turning to `Cl[C@@H]1CCCC[C@H]1Cl`, the logP came to 3.21.

`CN(C)C(N(C)C)=S(I)c1ccccc1I` (configuration not stated): the logP stood at 0.3.

Take `CC1CCC(O)CC1` (configuration not stated): the logP was found to be 1.79.

In the case of `O=[N+]([O-])Cc1ccccc1`, the logP came to 1.75.

`CNc1ccc([N+](=O)[O-])cc1` displayed a logP of 2.04.

For the compound `CCN(CC)CCNC(=O)c1cc(Cl)ccc1OC`, the logP came to 3.11.

`CCC1COC(Cn2cncn2)(c2ccc(Cl)cc2Cl)O1` (configuration not stated): the logP worked out at 3.1.

In turn, `CC(C)C(C(=O)OC(C#N)c1cccc(Oc2ccccc2)c1)c1ccc(Cl)cc1` (configuration not stated) came in with a logP of 6.2.

For the compound `CCNC(=O)c1[nH]nc(C)c1[N+](=O)[O-]`, the logP worked out at 0.13.

`O=[N+]([O-])c1ccccc1Nc1ccccc1` gave a lipophilicity (logP) of 3.66.

The compound `C=C=C` had a logP of 1.45.

As for `C1=Cc2ccc3c4c(ccc(c24)C1)-c1ccccc1-3`, the logP stood at 5.78.

For the compound `OCCNCCO`, the logP was -1.43.

Consider `CCCCCOC1OC(CO)C(O)C(O)C1O` (configuration not stated), for which the log partition coefficient (logP) was -0.42.

In turn, `NCCc1c[nH]c2ccc(O)cc12` returned a logP of 0.21.

`CCn1cc(C(=O)O)c(=O)c2cnc(N3CCNCC3)nc21` displayed a logP of -2.15.

Take `O=C(O)c1ccccc1S`: the logP was 2.39.

In turn, `O=C(c1ccccc1)c1ccccc1O` registered a logP of 3.52.

In the case of `O=C(O)Cc1ccccc1Nc1c(Cl)cc(O)cc1Cl`, the logP came to 3.7. The logP values of the last two compounds are within 0.2 log units of each other.

Regarding `CNC(=O)OC`, the logP was -0.06.

The compound `CC(=O)OCc1ccc([N+](=O)[O-])cc1` gave a logP of 1.73.

In the case of `S=C(NN=Cc1ccco1)Nc1ccccc1`, the lipophilicity (logP) worked out at 3.13.

`CC(C)C(Br)C(=O)NC(N)=O` (configuration not stated) had a logP of 1.14.

With `CC(=O)C(C)=O`, the logP is -1.34.

In turn, `COc1ccc2cc(C(C)C(=O)OCC(=O)N(C)CCO)ccc2c1` (configuration not stated) yielded a logP of 2.01.

`Cc1cccc(O)c1` came in with a logP of 1.96.

`O=C1CCC(=O)N1c1ccccc1`: the logP was found to be 0.06.

On to `Cc1cc(=O)oc2cc(O)ccc12`, for which the logP worked out at 1.9.

On to `CCCCOC(=O)c1ccc(O)cc1`, for which the log partition coefficient (logP) came to 3.57.

Compound `CC[C@H](C)[C@H](NC(=O)[C@@H](NC(C)=O)[C@@H](C)O)C(N)=O` (Ac-Thr-Ile-NH2) displayed a logP of -0.86.

`CNC(=O)Oc1cccc(C(C)(C)C)c1`: the logP was determined as 2.93.

As to `Cc1cc(NS(=O)(=O)c2ccc(N)cc2)nc(C)n1`, the logP was -0.33.

The compound `C[C@]12CCC(=O)C=C1CC[C@@H]1[C@@H]2[C@@H](O)C[C@@]2(C)[C@H]1CC[C@]2(O)C(=O)CO` returned a logP of 1.61.

In turn, `C=C(C)C(=O)OCC(C)C` returned a logP of 2.66.

In the case of `Cc1ccc(O)c(C(=O)O)c1`, the logP was 2.78.
